Data published in article PMC7614232 (Organic & biomolecular chemistry, 2022).

What was measured:
[1] = target: T1, AMAN-2 (Golgi α-mannosidase) (Caenorhabditis elegans, UniProt Q2PJ74); test: α-mannosidase inhibition assay with pNP-Man, AMAN-2; type: biochemical; settings: for SI^b = IC50(JBMan)/IC50(AMAN-2): selectivity index
T1 sequence (Q2PJ74 27-1145): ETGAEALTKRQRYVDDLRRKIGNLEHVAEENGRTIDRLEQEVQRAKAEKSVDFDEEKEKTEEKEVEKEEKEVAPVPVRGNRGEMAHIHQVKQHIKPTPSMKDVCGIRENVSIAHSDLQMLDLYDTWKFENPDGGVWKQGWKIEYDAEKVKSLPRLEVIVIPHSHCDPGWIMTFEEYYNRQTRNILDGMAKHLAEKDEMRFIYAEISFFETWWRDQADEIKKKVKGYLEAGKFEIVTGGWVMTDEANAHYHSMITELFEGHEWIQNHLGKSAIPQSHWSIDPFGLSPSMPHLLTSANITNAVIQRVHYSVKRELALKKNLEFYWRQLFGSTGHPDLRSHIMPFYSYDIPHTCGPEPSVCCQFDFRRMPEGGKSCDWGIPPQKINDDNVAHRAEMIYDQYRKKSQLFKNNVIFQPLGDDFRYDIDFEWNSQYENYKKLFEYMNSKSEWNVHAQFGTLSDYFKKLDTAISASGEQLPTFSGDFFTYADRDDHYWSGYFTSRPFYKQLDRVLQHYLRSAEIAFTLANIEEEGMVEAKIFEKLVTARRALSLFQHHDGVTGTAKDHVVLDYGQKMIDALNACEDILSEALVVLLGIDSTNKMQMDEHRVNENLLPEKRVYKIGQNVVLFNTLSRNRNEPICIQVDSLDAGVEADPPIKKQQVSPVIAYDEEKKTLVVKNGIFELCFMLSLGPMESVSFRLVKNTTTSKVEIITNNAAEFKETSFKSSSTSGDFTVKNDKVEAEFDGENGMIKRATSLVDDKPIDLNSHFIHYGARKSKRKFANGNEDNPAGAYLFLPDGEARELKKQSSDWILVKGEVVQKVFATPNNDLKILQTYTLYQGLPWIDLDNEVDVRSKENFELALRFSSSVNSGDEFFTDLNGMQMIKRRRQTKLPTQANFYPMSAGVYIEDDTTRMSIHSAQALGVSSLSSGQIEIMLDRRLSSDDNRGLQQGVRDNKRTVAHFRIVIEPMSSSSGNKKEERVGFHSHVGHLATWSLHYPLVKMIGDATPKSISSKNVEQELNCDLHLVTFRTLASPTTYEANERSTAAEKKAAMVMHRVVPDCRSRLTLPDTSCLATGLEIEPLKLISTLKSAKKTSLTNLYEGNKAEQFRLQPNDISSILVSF

[2] = target: T2, GMIIb (Golgi α-mannosidase) (Drosophila melanogaster, UniProt Q9VF33); test: α-mannosidase inhibition assay with pNP-Man, GMIIb; type: biochemical; settings: for SI^a = IC50(LManII)/IC50(GMIIb): selectivity index
T2 sequence (Q9VF33 31-1249): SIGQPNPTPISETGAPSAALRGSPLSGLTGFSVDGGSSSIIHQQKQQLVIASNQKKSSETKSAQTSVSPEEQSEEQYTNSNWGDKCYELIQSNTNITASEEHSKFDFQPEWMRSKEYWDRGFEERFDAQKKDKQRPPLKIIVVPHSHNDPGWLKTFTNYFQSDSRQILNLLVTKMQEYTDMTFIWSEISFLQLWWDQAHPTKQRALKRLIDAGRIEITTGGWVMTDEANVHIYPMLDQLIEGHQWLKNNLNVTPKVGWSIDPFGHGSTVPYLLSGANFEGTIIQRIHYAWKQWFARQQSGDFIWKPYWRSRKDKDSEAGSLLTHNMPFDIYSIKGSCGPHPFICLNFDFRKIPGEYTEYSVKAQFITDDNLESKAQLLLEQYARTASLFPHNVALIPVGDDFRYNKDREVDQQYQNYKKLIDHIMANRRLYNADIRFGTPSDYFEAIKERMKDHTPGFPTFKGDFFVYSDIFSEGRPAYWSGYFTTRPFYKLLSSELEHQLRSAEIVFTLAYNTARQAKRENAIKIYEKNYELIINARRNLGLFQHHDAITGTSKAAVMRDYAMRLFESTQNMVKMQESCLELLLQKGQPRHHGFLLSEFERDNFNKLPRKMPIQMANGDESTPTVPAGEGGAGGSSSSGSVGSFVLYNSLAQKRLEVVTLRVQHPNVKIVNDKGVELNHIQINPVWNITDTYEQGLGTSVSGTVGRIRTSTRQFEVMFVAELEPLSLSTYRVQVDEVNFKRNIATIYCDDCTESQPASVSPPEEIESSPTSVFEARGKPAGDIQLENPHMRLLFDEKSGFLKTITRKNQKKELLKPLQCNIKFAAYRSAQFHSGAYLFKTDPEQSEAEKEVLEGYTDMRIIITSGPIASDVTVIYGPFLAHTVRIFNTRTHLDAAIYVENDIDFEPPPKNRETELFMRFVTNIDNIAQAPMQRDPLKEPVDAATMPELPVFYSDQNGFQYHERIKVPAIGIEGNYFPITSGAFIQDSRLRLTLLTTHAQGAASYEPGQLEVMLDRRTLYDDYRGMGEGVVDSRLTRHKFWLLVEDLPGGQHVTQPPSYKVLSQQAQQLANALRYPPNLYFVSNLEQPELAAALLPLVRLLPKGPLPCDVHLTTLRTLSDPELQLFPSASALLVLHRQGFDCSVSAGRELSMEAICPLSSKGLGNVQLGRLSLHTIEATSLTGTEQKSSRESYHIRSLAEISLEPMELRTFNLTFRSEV

[3] = system: dGMII (Golgi α-mannosidase II); settings: previous pKa calculations; cited from earlier work
[4] = in aqueous solution; cited from earlier work

SMILES	SI^b = IC50(JBMan)/IC50(AMAN-2) [1]	SI^a = IC50(LManII)/IC50(GMIIb) [2]	Ki ([1]; read-out: Ki AMAN-2, Dixon plots, pNP-Man 0.5-4 mM, pH 6.0) [µM]	Ki ([2]; read-out: Ki GMIIb, Dixon plots, pNP-Man 0.5-4 mM, pH 6.0) [µM]	pKa bound in complex with dGMII [3]	pKa [4]
Cl.OC[C@H]1NC[C@@H](O)[C@H]1O [Compound 6, 1,4-Dideoxy-1,4-imino-d-lyxitol hydrochloride]	5	8	–	–	–	–
OC[C@@H](O)[C@H]1NC[C@@H](O)[C@H]1O [DIM, 1,4-dideoxy-1,4-imino-D-mannitol, reference compound]	1	13	0.68	0.13	–	–
O[C@H]1[C@H]2[C@H](O)CCCN2C[C@H]1O [Swainsonine, (1S,2R,8R,8aR)-trihydroxy-indolizidine]	–	–	–	–	5.0	7.5
